Laboratory results from publication PMC11995724, “Antibiotic target discovery by integrated phenotypic and activity-based profiling of electrophilic fragments” (Cell chemical biology, 2025).

test: in vitro; conditions: human, hek293t cells

Row | Compound | viability at 48 h, 25 µM [%]
1 | CC(Cl)C(=O)NC1CCCN(c2ncccn2)C1 (centres unmarked) [7-C21, 2-chloro-N-[1-(pyrimidin-2-yl)piperidin-3-yl]propanamide] | 93.1
2 | C=CC(=O)N1CCCC(S(=O)(=O)NC)C1 (centres unmarked) [3-D17, N-methyl-1-(prop-2-enoyl)piperidine-3-sulfonamide] | 67.5
3 | CCN(Cc1ccc(OC)c(F)c1)C(=O)CCl [5-D09, 2-chloro-N-ethyl-N-[(3-fluoro-4-methoxyphenyl)methyl]acetamide] | 1.38
4 | O=C(CCl)N1CCCCC1Cn1ccnn1 (centres unmarked) [5-E08, 2-chloro-1-{2-[(1H-1,2,3-triazol-1-yl)methyl]piperidin-1-yl}ethan-1-one] | 28
5 | CCN(CC)C(=O)/C(C#N)=C/c1cc(O)c(O)c([N+](=O)[O-])c1 [9-B04, (2E)-2-cyano-3-(3,4-dihydroxy-5-nitrophenyl)-N,N-diethylprop-2-enamide] | 105
6 | Cc1ccc(N(CCC#N)C(=O)CCl)cc1C [4-A03, 2-chloro-N-(2-cyanoethyl)-N-(3,4-dimethylphenyl)acetamide] | 0.265
7 | CC(Cl)C(=O)N1CC(=O)Nc2cc(C(F)(F)F)ccc21 (centres unmarked) [4-N20, 4-(2-chloropropanoyl)-7-(trifluoromethyl)-1,2,3,4-tetrahydroquinoxalin-2-one] | 82.1
8 | Cc1cc(C(=O)CCl)c(C)n1Cc1cccs1 [10-D03, 2-chloro-1-{2,5-dimethyl-1-[(thiophen-2-yl)methyl]-1H-pyrrol-3-yl}ethan-1-one] | 104
9 | CC(=O)N(C)Cc1ccc(C(=O)CCl)cc1 [10-H04, N-{[4-(2-chloroacetyl)phenyl]methyl}-N-methylacetamide] | 64
10 | CC(Cl)C(=O)N[C@H]1C[C@@H]1c1cnn(-c2ccccc2)c1 (mixture of isomers) [7-M08, rac-2-chloro-N-[(1R,2S)-2-(1-phenyl-1H-pyrazol-4-yl)cyclopropyl]propanamide] | 76.7
11 | O=[N+]([O-])c1ccccc1S(=O)(=O)N1CCSSCC1 [10-N09, 5-(2-nitrobenzenesulfonyl)-1,2,5-dithiazepane] | 117
12 | O=C(CCl)Nc1oncc1-c1ccccc1 [6-I20, 2-chloro-N-(4-phenyl-1,2-oxazol-5-yl)acetamide] | 1.45
13 | C=CC(=O)NC(c1ccccc1)C1CCC1 (centres unmarked) [1-G05, N-[cyclobutyl(phenyl)methyl]prop-2-enamide] | 76.5
14 | C=CC(=O)Nc1ccc(C(=O)N[C@H]2COC[C@@H]2OC)cc1 (racemic) [3-C08, rac-N-[(3R,4S)-4-methoxyoxolan-3-yl]-4-(prop-2-enamido)benzamide] | 85.1
15 | O=C(CCl)NCCc1ccn(C2CCCC2)n1 [7-L20, 2-chloro-N-[2-(1-cyclopentyl-1H-pyrazol-3-yl)ethyl]acetamide] | 38.7
16 | C=CC(=O)Nc1ccc(C(=O)N2CCC(C(C)C)CC2)cc1 [3-B15, N-{4-[4-(propan-2-yl)piperidine-1-carbonyl]phenyl}prop-2-enamide] | 27.5
17 | Cc1ccc(Oc2ccc(NC(=O)CCl)cc2)cc1 [4-K03, 2-chloro-N-[4-(4-methylphenoxy)phenyl]acetamide] | 0.0354
18 | O=C(CCl)NCc1ccn(Cc2ccccc2)n1 [7-H10, N-[(1-benzyl-1H-pyrazol-3-yl)methyl]-2-chloroacetamide] | 0.654
19 | C=CC(=O)Nc1nc(-c2cccs2)cs1 [1-D08, N-[4-(thiophen-2-yl)-1,3-thiazol-2-yl]prop-2-enamide] | 1.21
20 | Cc1cccc(NC(=O)c2ccccc2NC(=O)CCl)c1 [4-C10, 2-(2-chloroacetamido)-N-(3-methylphenyl)benzamide] | -0.0841
21 | C=CC(=O)N1CCOCC1c1ccnn1C (centres unmarked) [3-I19, 1-[3-(1-methyl-1H-pyrazol-5-yl)morpholin-4-yl]prop-2-en-1-one] | 49.7
22 | O=C(CCl)NCc1coc(Cl)n1 [6-B04, 2-chloro-N-[(2-chloro-1,3-oxazol-4-yl)methyl]acetamide] | 106
23 | CN(C)c1ccc(C=C(C#N)C(N)=O)cc1 [9-O04, 2-cyano-3-[4-(dimethylamino)phenyl]prop-2-enamide] | 118
24 | C=CC(=O)NCC1CS(=O)(=O)c2ccccc21 (centres unmarked) [3-J15, N-[(1,1-dioxo-2,3-dihydro-1lambda6-benzothiophen-3-yl)methyl]prop-2-enamide] | 81.2
25 | C=CC(=O)N1CCC(c2nnc3n2CCCC3)CC1 [2-J21, 1-(4-{5H,6H,7H,8H-[1,2,4]triazolo[4,3-a]pyridin-3-yl}piperidin-1-yl)prop-2-en-1-one] | 67.6
26 | COc1ccc(C=C(C#N)C(=O)Nc2cccc(Cl)c2)cc1 [8-I09, N-(3-chlorophenyl)-2-cyano-3-(4-methoxyphenyl)prop-2-enamide] | 80
27 | COc1ccccc1CN(C)C(=O)CCl [6-C09, 2-chloro-N-[(2-methoxyphenyl)methyl]-N-methylacetamide] | 1.06

Row | Compound | viability at 48 h, 25 µM [%]
28 | C=CC(=O)Nc1ccc(OC)cc1S(C)(=O)=O [1-C04, N-(2-methanesulfonyl-4-methoxyphenyl)prop-2-enamide] | 65.8
29 | COc1cc(C=C(C#N)C(=O)NC2CCCCC2)cc(Cl)c1O [8-H21, 3-(3-chloro-4-hydroxy-5-methoxyphenyl)-2-cyano-N-cyclohexylprop-2-enamide] | 92.7
30 | CC(Cl)C(=O)N1Cc2ccccc2OCC1C (centres unmarked) [7-F11, 2-chloro-1-(3-methyl-2,3,4,5-tetrahydro-1,4-benzoxazepin-4-yl)propan-1-one] | 86.6
31 | O=C(CCl)Nc1cc(S(=O)(=O)N2CCOCC2)ccc1Cl [6-H03, 2-chloro-N-[2-chloro-5-(morpholine-4-sulfonyl)phenyl]acetamide] | 1.8
32 | C=CC(=O)NCc1ccc(-n2ccc(C3CC3)n2)cc1 [2-B03, N-{[4-(3-cyclopropyl-1H-pyrazol-1-yl)phenyl]methyl}prop-2-enamide] | 85.9
33 | Cc1nn(C)c(N2CCCN(C)CC2)c1CNC(=O)C(C)Cl (centres unmarked) [6-N17, 2-chloro-N-{[1,3-dimethyl-5-(4-methyl-1,4-diazepan-1-yl)-1H-pyrazol-4-yl]methyl}propanamide] | 107
34 | CCCn1c(N)c(C(=O)CCl)c(=O)n(C)c1=O [10-H12, 6-amino-5-(2-chloroacetyl)-3-methyl-1-propyl-1,2,3,4-tetrahydropyrimidine-2,4-dione] | 86.3
35 | C=CC(=O)NCCn1cc(C2CCOC2)cn1 (centres unmarked) [2-L09, N-{2-[4-(oxolan-3-yl)-1H-pyrazol-1-yl]ethyl}prop-2-enamide] | 53.7
36 | O=C(CCl)NCC(F)(F)c1cc(-c2ccccc2)n[nH]1 [7-P20, 2-chloro-N-[2,2-difluoro-2-(3-phenyl-1H-pyrazol-5-yl)ethyl]acetamide] | 0.938
37 | CC(C)c1ccc(C(NC(=O)CCl)C(C)C)cc1 (centres unmarked) [4-O14, 2-chloro-N-{2-methyl-1-[4-(propan-2-yl)phenyl]propyl}acetamide] | 0.576
38 | C=CC(=O)Nc1ccc(-n2cnnn2)c(F)c1 [1-I17, N-[3-fluoro-4-(1H-1,2,3,4-tetrazol-1-yl)phenyl]prop-2-enamide] | 39.9
39 | CCc1ccc(Cc2cnc(NC(=O)CCl)s2)cc1 [4-F19, 2-chloro-N-{5-[(4-ethylphenyl)methyl]-1,3-thiazol-2-yl}acetamide] | 0.0785
40 | C=CC(=O)NC(C)c1ccc2c(c1)CCC2 (centres unmarked) [3-F09, N-[1-(2,3-dihydro-1H-inden-5-yl)ethyl]prop-2-enamide] | 72.3
41 | C=CC(=O)N1CCC(C(=O)N2CCOC(c3cccc(F)c3)C2)CC1 (centres unmarked) [2-L14, 1-{4-[2-(3-fluorophenyl)morpholine-4-carbonyl]piperidin-1-yl}prop-2-en-1-one] | 102
42 | Cn1cc(S(=O)(=O)N2CCOCC2)cc1C(=O)NC(=O)CCl [4-P20, N-(2-chloroacetyl)-1-methyl-4-(morpholine-4-sulfonyl)-1H-pyrrole-2-carboxamide] | 106
43 | CC(Cl)C(=O)N(C)C1CCN(c2ccccc2Cl)C1=O (centres unmarked) [7-C16, 2-chloro-N-[1-(2-chlorophenyl)-2-oxopyrrolidin-3-yl]-N-methylpropanamide] | 77.8
44 | N#CC(=Cc1cccc(Oc2ccccc2)c1)C(=O)N1CCCC1 [9-F06, 3-(3-phenoxyphenyl)-2-(pyrrolidine-1-carbonyl)prop-2-enenitrile] | 46.3
45 | CC(O)=C(C#N)C(=O)Nc1ccc(-c2ccccc2Cl)c(Cl)c1 [9-L22, 2-cyano-N-{2,2'-dichloro-[1,1'-biphenyl]-4-yl}-3-hydroxybut-2-enamide] | 117
46 | Cc1cc(C(=O)CCl)c(C)n1CC1CCCO1 (centres unmarked) [10-B08, 2-chloro-1-{2,5-dimethyl-1-[(oxolan-2-yl)methyl]-1H-pyrrol-3-yl}ethan-1-one] | 54.2
47 | CCn1nc(C)c(C=C(C#N)C(=O)Nc2ccccc2Cl)c1C [9-F07, N-(2-chlorophenyl)-2-cyano-3-(1-ethyl-3,5-dimethyl-1H-pyrazol-4-yl)prop-2-enamide] | 110
48 | C=CC(=O)N1CCn2cccc2C12COC2 [1-K09, 1-{3',4'-dihydro-2'H-spiro[oxetane-3,1'-pyrrolo[1,2-a]pyrazin]-2'-yl}prop-2-en-1-one] | 80.6
49 | C=CC(=O)N1CC(C(N)=O)Oc2ccccc21 (centres unmarked) [1-A09, 4-(prop-2-enoyl)-3,4-dihydro-2H-1,4-benzoxazine-2-carboxamide] | 24.7
50 | CNC(=O)CC(NC(=O)CCl)c1ccc(F)cc1F (centres unmarked) [4-I16, 3-(2-chloroacetamido)-3-(2,4-difluorophenyl)-N-methylpropanamide] | 18.5
51 | O=C1C=CC(=O)N1c1ccc(SC(F)F)cc1 [10-A18, 1-{4-[(difluoromethyl)sulfanyl]phenyl}-2,5-dihydro-1H-pyrrole-2,5-dione] | 3.22
52 | CC(Cl)C(=O)N[C@H]1CCO[C@@H]1c1nccn1-c1ccccc1 (mixture of isomers) [7-A12, rac-2-chloro-N-[(2R,3R)-2-(1-phenyl-1H-imidazol-2-yl)oxolan-3-yl]propanamide] | 93.1
53 | CC(C)NC(=O)C(C#N)=Cc1cccc(Cl)c1Cl [9-C07, 2-cyano-3-(2,3-dichlorophenyl)-N-(propan-2-yl)prop-2-enamide] | 39.7
